EP3884941A1, “INFLAMMASOME INHIBITORS AND USE THEREOF” (CENTRO DE INVESTIGACION PRINCIPE FELIPE, priority 2020, dated 2021)

What was measured:
[1] = target: T1, caspase-3 (Homo sapiens, UniProt P42574); experiment: Caspase-3 activation assay; type: biochemical; conditions: recombinant caspase-3; MM01 5 µM (Figure 2A)
T1 sequence (P42574 29-277): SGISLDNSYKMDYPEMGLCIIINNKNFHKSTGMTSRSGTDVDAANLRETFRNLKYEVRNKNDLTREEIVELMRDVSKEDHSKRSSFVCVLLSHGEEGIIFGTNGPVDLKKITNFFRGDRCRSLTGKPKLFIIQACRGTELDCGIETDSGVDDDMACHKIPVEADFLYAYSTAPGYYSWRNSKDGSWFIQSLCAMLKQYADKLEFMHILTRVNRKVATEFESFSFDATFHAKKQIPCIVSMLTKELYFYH
Experimental: Compounds were incubated with caspase-3 (2 nM) in reaction buffer (100 mM NaCl, 50 mM Hepes pH 7.4, 10 mM DTT, 1 mM EDTA, 10% glycerol, 0.1% CHAPS) for 20 min at RT. Enzyme activity was spectrophotometrically monitored by adding Ac-DEVD-pNA (200 µM) substrate.

[2] = tested on: NLRP3 inflammasome; experiment: inflammasome activation cellular assay, LPS plus nigericin, PMA-differentiated THP-1 cells; type: cell-based, human; conditions: MM01 10 µM
Experimental: The MM01 compound was evaluated in the THP-1, or PMA-differentiated THP-1 cells (50 nM PMA for 24h) stimulated with lipopolysaccharide (LPS) plus adenosine triphosphate (ATP) to stimulate ASC-dependent inflammasomes NLRP3. Briefly, 1x10^6 cells were seeded in 6-well plates in 1 mL RPMI media that contained 1% FBS. Cells were either mock-treated or primed with compounds at the indicated concentrations for 30 min, followed by treatment with 100 ng/mL LPS (Sigma) and 2.5 mM ATP (Sigma) for 6 h at 37°C. In the case of nigericin stimulation, cells were primed with LPS for 3h, and then 10 µM nigericin (Sigma) was added for 30 min. Supernatants were harvested and clarified by centrifugation at 1500 rpm at RT, and a cytokine analysis was performed. Both IL-1β secretion and the release of IL-18were monitored by an ELISA assay (BD OptEIA™ Human IL-1β ELISA Kit and Human IL-18 Module Set eBioscience) following the manufacturer's instructions. Cell viability was analyzed in parallel by evaluating the release of lactate dehydrogenase (LDH) according to a commercial kit (CytoTox-ONE™ Homogeneous Membrane Integrity Assay; Promega). The release of LDH was calculated using the formula: the release of LDH (%) = 100x (Abs490 treated -Abs490 untreated cells)/ Abs490 untreated cells lysed with Triton 9% (maximum release of LDH).
The supernatants of the treated cells were precipitated by the chloroform-methanol method. Pellets were obtained by lysing cells in 25 mM of Tris-HCI pH 7.4, 1 mM EDTA, 1 mM EGTA and 1% SDS, plus protease and phosphatase inhibitors. The protein concentration was determined by the BCA protein assay. Samples were separated in a 14% SDS-PAGE gel, transferred to a nitrocellulose membrane and blocked with 5% skimmed milk for 1 h. Then the membrane was incubated overnight with primary antibodies: α-casp1 (1:1000; Cell Signaling 2225), α-IL-1β (1:1000; Acris R1130P), α-NLRP3 (1:1000; Cell Signaling 15101), α-tubulin (1:3000; Abcam ab6160) at 4°C. […]

[3] = target: T2, Recombinant caspase-1 (Homo sapiens, UniProt P29466); experiment: caspase-1 in vitro activation assay (secondary screening); type: biochemical; conditions: preactivated recombinant caspase-1
T2 sequence (P29466 120-297 limits assumed): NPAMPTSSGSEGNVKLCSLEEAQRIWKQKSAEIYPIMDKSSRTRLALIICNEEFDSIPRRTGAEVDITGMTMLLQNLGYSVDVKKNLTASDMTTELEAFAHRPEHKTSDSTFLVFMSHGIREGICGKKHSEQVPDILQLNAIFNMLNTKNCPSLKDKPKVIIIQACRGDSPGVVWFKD
T2 sequence (P29466 317-404 limits assumed): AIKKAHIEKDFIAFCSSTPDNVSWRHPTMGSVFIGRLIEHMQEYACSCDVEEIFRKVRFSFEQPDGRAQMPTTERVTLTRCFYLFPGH
Experimental: Recombinant caspase-1 (50 nM) was incubated with the indicated concentrations of compounds for 20 min at RT in Assay Buffer. Then fluorogenic substrate Ac-WEHD-AFC (80 µM) was added, and activity was monitored in a Wallac Victor workstation. Data are reported as the percentage of inhibition compared with the absence of the inhibitor.

[4] = target: T3, caspase-9 (Homo sapiens, UniProt P55211); experiment: caspase-9 activity assay (Na-citrate pre-activated); type: biochemical; conditions: recombinant caspase-9; MM01 5 µM (Figure 2B)
T3 sequence (P55211 1-416): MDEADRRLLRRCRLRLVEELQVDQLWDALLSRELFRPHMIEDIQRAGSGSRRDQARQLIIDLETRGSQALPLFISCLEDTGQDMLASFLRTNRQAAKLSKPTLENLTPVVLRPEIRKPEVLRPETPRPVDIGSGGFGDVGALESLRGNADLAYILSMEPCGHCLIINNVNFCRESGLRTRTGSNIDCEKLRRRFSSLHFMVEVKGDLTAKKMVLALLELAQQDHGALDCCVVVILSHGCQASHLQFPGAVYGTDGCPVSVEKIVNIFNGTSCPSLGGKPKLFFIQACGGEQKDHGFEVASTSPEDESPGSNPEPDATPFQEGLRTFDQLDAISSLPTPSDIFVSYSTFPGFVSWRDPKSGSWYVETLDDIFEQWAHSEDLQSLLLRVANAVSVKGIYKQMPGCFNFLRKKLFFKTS
Experimental: Caspase-9 was activated with kosmotropic salts, in particular with Na-citrate. Briefly, 5 µM caspase-9 was pre-activated for 20 min in SC buffer (50 mM Na2HPO4, 150 mM NaCl, 1.5% sucrose, 0.05% CHAPS, 10 mM DTT, 0.7 M Na-citrate, pH 7.4) at RT. Once pre-activated, the complete reaction was diluted to 100 nM caspase-9 in assay buffer without Na-Citrate and incubated 20 min at RT in the presence or absence of compounds. Enzyme activity was monitored by adding the Ac-LEHD-afc substrate (40 µM) using a Victor 2 spectrofluorimeter.

[5] = tested on: NLRP3 inflammasome; experiment: human PBMCs cellular assay, LPS plus ATP; type: cell-based; conditions: IL-1β and LDH release; MM01 1, 5 or 10 µM (Figure 5E, 5F)
Experimental: Human peripheral blood mononuclear cells (PBMCs) are lymphocytes and monocytes. PBMCs were separated from the whole blood by a density gradient centrifugation method using Ficoll Histopaque. Purified PBMCs were plated in 24-well plates at 5000000 cells/well in free-serum RPMI medium. Cells were primed for 3 h with 10 ng/ml pure LPS followed by 4 h with compounds and 5 mM ATP. Supernatants were harvested and clarified by centrifugation at 1500 rpm at RT and cytokine and caspase-1 activation analysis was performed as previously described.

[6] = PMA-differentiated THP-1, LPS 100 ng/ml + nigericin 10 µM

For C=CCN1C(=O)/C(=C2/C(=O)Nc3ccccc32)SC1=S [MM01], the caspase-3 activity [1] was “do not act on”, the IL-1β secretion [2, 6] was “decreased” and the IL-18 secretion [2, 6] was “decreased”. For the same compound, the pyroptotic cell death ([2]; PMA-differentiated THP-1, LPS + nigericin, LDH release) was “decreased”, the caspase-1 activity [3] was “do not act on” and the caspase-9 activity [4] was “do not act on”. The “LPS/ATP stimulation of isolated human PBMCs” value [5] was “inhibits”.
